Measurements taken from patent publication US10967047B2, “Mitochondrial antiviral-signaling (MAVS) polypeptides and detection and use thereof” (University of Vermont and State Agricultural College, priority 2016, dated 2021).

Legend:
[1] = system: MEFs; assay: Mitochondrial transmembrane potential (ΔΨm) by FACS using TMRE in MEFs; format: cell-based, mouse
Experimental: ROS generation was measured using oxidized, green-fluorescent dihydrocalcein acetoxymethylester (DHC-AM) (Life Technologies) and flow cytometry. Single-cell suspensions of MEFs were prepared and ROS was assessed with 5 μM DHC-AM staining in culture medium for 30 minutes (A. Rohnstock et al., (2007) Toxicol in Vitro 21, 1552-1562). 25 nM of cationic cell permeant dye tetramethylrhodamine ethylester (TMRE; Life Technologies) (R. C. Scaduto, Jr. et al., (1999), Biophysical journal 76, 469-477) were used to measure ΔΨm. Additionally, MitoSox Red and MitoTracker Deep Red (Life Technologies) were used to measure mitochondrial ROS and mitochondrial mass, respectively. Flow cytometry was carried out on an LSRII (BD Biosciences), and FlowJo software (Tree Star) was used for analysis.

[2] = system: Drp1; assay: Phosphorylated Drp1 (Drp1 616p) at purified mitochondria, densitometry normalized to Cox IV; format: cell-based
Experimental: To activate MAVS commercially available 5′-ppp-RNA was used at a concentration of 1 μg/ml, which activates RIG-I helicase. As an alternative GOx was used as previously described [Szeto, H. H., Br J Pharmacol, 2014. 171(8): p. 2029-50]. Mitochondria were purified by anti-Tom22 magnetic beads as previously described [Perl, A., et al., Int Rev Immunol, 2004. 23(3-4): p. 293-313]. Changes in the level of Drp1^616p at mitochondria were determined by densitometry, which was normalized to the level of Cox IV (FIG. 14A-B).

[3] = system: MEFs; assay: IFN-I and IL-6 cytokine secretion by ELISA in MEF culture supernatants; format: cell-based, mouse
Experimental: ELISA was used to measure cytokine concentration in supernatant from cultured MEFs and BMDCs, and in sera of SLE patients and healthy control subjects. For assays, samples were centrifuged and IFN-β and IL-6 levels were measured in triplicate using murine or human ELISA kits according to the manufacturer's instructions. (PBL Biosciences). The fold change in IFN-I or IL-6 cells was calculated by directly comparing mock versus virus or chemical inducer of ROS.

[4] = system: MAVS; assay: MAVS oligomerization in MEFs (semi-denaturing gel electrophoresis, immunoblot, densitometry); format: cell-based, mouse
Experimental: 5′ triphosphate double-stranded RNA (5′-ppp-dsRNA), a synthetic ligand for RIG-I, was purchased from InVivoGen and used at a concentration of 1 μg/mL. Mitochondria-targeted antioxidant MitoQ and the mitochondria-targeted superoxide generator MitoPQ, were gifts of M. Murphy (G. F. Kelso et al., (2001) The Journal of biological chemistry 276, 4588-4596). The control reagent TPP was purchased from Sigma. Reagents were added to cells at concentrations as indicated. GOx was purchased from Sigma and added to cultured cells at a final concentration of 0.1 U/mL. Iodoacetamide was from Thermo Fisher, and used at a final concentration of 100 μM.
Cultured MEFs or human PBMCs were lysed in a sample buffer containing 2% SDS and insoluble cell fragments were removed by centrifugation. Plasma samples derived from SLE patients were collected and stored at −20° C. until gel electrophoresis. BCA protein assay (Thermo Scientific) was used to determine protein concentrations in all samples were resolved with SDS-PAGE under denaturing conditions. Gels were transferred to PVDF membranes using a Trans-Blot Turbo Transfer System (BioRad).
SDD-AGE was performed according to a published protocol with minor modifications (Alberti et al., (2009) Cell 137, 146-158). In brief, mitochondria were resuspended in sample buffer (0.5×TBE, 10% glycerol, 2% SDS, and 0.0025% bromophenol blue) and loaded onto a vertical 1.5% agarose gel. After electrophoresis in the running buffer (1×TBE and 0.1% SDS) for 35 min with a constant voltage of 75 V at 4° C., proteins were transferred to PVDF membranes using a Trans-Blot Turbo Transfer System (BioRad) for immunoblotting.
PVDF membranes were blocked in 5% solution of nonfat powdered milk in Tris-buffered saline. Antibodies used were specific for MAVS and Actin (Santa Cruz); RIPK1 and TRAF2 (BD Biosciences); TANK, TRADD, RIG-I, and GAPDH (Cell Signaling); MDAS and COX4 (Abcam), Alexa 488 (Life Technologies), and IRF3 (Thermo Fisher), respectively. Immunoreactive proteins were visualized using HRP-labeled conjugates (Jackson Immuno Research) and developed using Clarity Western ECL substrate (Biorad). Chemiluminescence was detected and recorded using a Biorad Chemidoc instrument. Densitometric measurements were performed in Image Lab image acquisition and analysis software (Biorad).

[5] = system: MAVS; assay: MAVS oligomerization in purified MEF mitochondria, with or without SLE patient-derived MAVS oligomers; set-up: species or system mouse
Experimental: MAVS antibody was covalently coupled to protein G magnetic beads (Life Technologies) using the bi-functional amine-reactive cross-linker disuccinimidyl suberate (DSS; Thermo Scientific). To avoid a sample contamination with proteins or protein complexes that nonspecifically bind to protein G, plasma samples were pre-incubated with protein G magnetic beads without the cross-linked MAVS antibody. SLE patient plasma were incubated for 6 hours, after which the magnetic beads were loaded onto a column in a magnetic field and extensively washed. After the beads were eluted, MAVS-oligomers were released from MAVS-antibody by way of increasing ionic strength buffer, lower pH and gel filtration. Functionally intact mitochondria from cultured cells were isolated as described earlier (S. Schmitt et al., (2013) Analytical biochemistry 443, 66-74). This method comprises a mechanical cell rupture, followed by a precipitation of mitochondria from cell lysates using magnetically labeled anti-TOM22 (Miltenyi Biotec) antibody. […] The reaction mixtures were centrifuged at 10,000×g for 10 min, and the precipitates then analyzed using SDD-AGE.

Compound	mitochondrial hyperpolarization (ΔΨm) with MitoQ ([1]; MEF, GOx+/−MitoQ and SINV+/−MitoQ, TMRE (FIG. 3C))	level of phosphorylated Drp1 at mitochondria with MitoQ pre-treatment ([2]; same cells pre-treated with MitoQ, versus 5′-ppp-RNA or GOx alone (FIG. 14A-B))	IFN-I secretion with MitoQ ([3]; MEF with or without MitoQ, GOx or SINV (FIG. 3D))	decrease in MAVS oligomers ([4]; MEFs pre-treated with 100 μM MitoQ, then GOx, oligomer/monomer ratio by densitometry (FIG. 3B)) [%]	decrease in MAVS oligomerization ([4]; MEFs pre-treated with 100 μM MitoQ, then SINV infection, densitometry (FIG. 3B)) [%]	MAVS oligomerization after pretreatment ([4]; MEFs pretreated (100 μM) before GOx or SINV (FIG. 3A))	MAVS oligomerization induced by SLE plasma MAVS oligomers in isolated mitochondria ([5]; mitochondria pretreated with MitoQ (FIG. 6C, lane 4))	ΔΨm induced by the substance ([1]; MAVS-WT MEFs, not observed in MAVS-KO (FIG. 1B, 2D))	level of phosphorylated Drp1 at mitochondria after MAVS activation ([2]; 5′-ppp-RNA 1 μg/ml or GOx (FIG. 14A-B))	IFN-I secretion induced by the substance ([3]; MAVS-WT MEFs, not observed in MAVS-KO (FIG. 2E, 2J))	IL-6 secretion induced by the substance ([3]; MAVS-WT MEFs, not observed in MAVS-KO (FIG. 2F, 2K))	induction of MAVS oligomerization without viral infection ([4]; MEFs, substance alone (MitoPQ 1 to 10 nM, FIG. 2H; GOx, FIG. 2A))	induction of MAVS oligomerization in purified mitochondria ([5]; GOx treatment, positive control (FIG. 6C, lane 2))
COC1=C(OC)C(=O)C(CCCCCCCCCC[P+](c2ccccc2)(c2ccccc2)c2ccccc2)=C(C)C1=O.CS(=O)(=O)[O-] [MitoQ, [10-(4,5-Dimethoxy-2-methyl-3,6-dioxo-1,4-cyclohexadien-1-yl)decyl](triphenyl)phosphonium methanesulfonate]	decreased mitochondrial hyperpolarization	higher levels	reduced IFN-I secretion	≥ 80	~40	reduced MAVS oligomerization	significantly decreased						
glucose oxidase [GOx]								increased ΔΨm	lower levels of phosphorylated Drp1 at mitochondria	increased secretion	increased secretion	sufficient to induce MAVS oligomerization	induced MAVS oligomerization
